From patent publication US10428024B2, “Piperidinyl derivatives” (MERCK PATENT GMBH, priority 2016, dated 2019)

Columns and labels:
PDHK2 = PDHK2 (Homo sapiens (Human), UniProt Q15119); assay: Biochemical activity testing of PDHK2: PDC inactivation assay; details: human rec PDHK2, 5 μM ATP, read-out: IC50 PDHK2 (enzyme assay)
Text: Biochemical Activity Testing of PDHK2: PDC Inactivation Assay
The biochemical activity assay for PDHK2 is based on the inactivation of PDC through phosphorylation by PDHK2. The assay is run in two steps: the enzymatic PDHK2 reaction in which isolated PDC is phosphorylated by PDHK2 with ATP as co-substrate and the PDC activity assay in which pyruvate and NAD are converted to acetyl-CoA and NADH. The PDC activity correlates to the increase in NADH and thereby is detectable directly via the increasing fluorescence signal (Exc 340 nm, Em 450 nm). Inhibition of PDHK2 results in a lower phosphorylation status and thereby a less decrease in activity of PDC and a stronger increase in NADH fluorescence signal.
The PDC inactivation assay is performed in Greiner 384-well microtiter plates and is used for high throughput screen. 4 μl of PDHK2 (human, rec, Carna Bioscience, 10 ng/μl-137 nM final concentration) and PDC (isolated from porcine heart, Sigma-Aldrich, 20 mU/ml final concentration) are incubated in the absence or presence of the test compound (10 dilution concentrations) for 30 min at room temperature in kinase buffer (15 mM potassium phosphate buffer, pH 7.0, 60 mM KCl, 1.5 mM DTT, 2.5 mM MgCl2, 0.0125% (w/v) BSA, 0.125% Pluronic F-68). The kinase reaction is started by the addition of 4 μl ATP substrate solution (fc 5 μM in kinase buffer). After 30 min incubation at 37° C. 40 μl of PDC reaction solution (100 mM Tris/HCl, pH 7.8, 0.5 mM EDTA, 1 mM MgCl2, 50 mM NaF, 0.25 mM Coenzyme A, 5 mM pyruvate, 1 mM NAD, 5 mM DTT, 1 mM thiamine pyrophosphate) is added. The first fluorescence measurement is performed on a Perkin Elmer Envision (Exc 340 nm, Em 450 nm). The reaction is incubated for 45 min at room temperature. Afterwards a second fluorescence measurement is performed and the PDC activity is calculated by the difference between both measurements. As full value for the PDHK2 assay the inhibitor-free PDHK2 reaction is used. The pharmacological zero value used is DCA (Sigma-Aldrich) in a final concentration of 3 mM. The inhibitory values (IC50) were determined using either the program Symyx Assay Explorer® or Condosseo® from GeneData.

[1] = tested on: PDH-E1alpha (pSer300) in HEK293T cells; assay: Cellular immunofluorescence assay (Anti-PDH-E1alpha (pSer300)) in HEK293T cells; type: cell-based; details: Homo sapiens, HEK-293T, 5 hours incubation, read-out: IC50 (cell data)
Protocol: Cellular Assay for Determination of Compound Activities
Compound activities were determined in a cellular immunofluorescence assay.
Human HEK293T cells were seeded into black 384-well plates with clear bottom and grown overnight.
Next day, test compounds were added to the wells and the plates incubated for 5 hours. Following this, cells were fixed with formaldehyde, permeabilised and blocked. The primary antibody, Anti-PDH-E1alpha (pSer300), AP1064 (Merck Millipore) was added and incubated overnight in the plate wells. Next, cells were washed and the secondary antibody, Alexa Fluor 488, goat anti-rabbit ab (A-11008, Invitrogen) was added together with Hoechst 33258 (H3569, Invitrogen) and incubated for 1 hour in the plate wells. Finally, cells were washed and the plates were measured on the laser scanning cytometer acumen hci (TTpLabtech).
The raw data were normalized against a pharmacological inhibitor control and dose response curves were generated by plotting the percent effect values using the software package Genedata screener (Genedata).

human PDHK2 (12-407) = human PDHK2 (12-407) (Homo sapiens (Human), UniProt Q15119); assay: Isothermal titration calorimetry (ITC); details: 30° C., pH 7.5; read-out: Binding (ITC) KD
Protocol: Isothermal Titration Calorimetry
ITC measurements were performed with a VP-ITC micro calorimeter (Microcal, LLC/GE Healthcare Bio-Sciences AB, Uppsala, Sweden). In general titrations were performed by titrating the protein (50 μM) to the test compound (5 μM) in 12 μl injections. All binding experiments were carried out at 30° C. In general the test compounds were diluted form DMSO stock solutions into the measurement buffer with a maximum final concentration of 1% DMSO. The measurement buffer was 20 mM HEPES, 135 mM KCl, 1 mM TCEP, 2 mM MgCl2, 15 mM NaH2PO4, pH 7.5. The human PDHK2 (12-407) was produced in E. coli as his-tagged protein and purified by affinity chromatography. The tag was removed by side specific proteolysis. Before titration the protein buffer was changed to the measurement buffer containing the same DMSO concentration as the test compound dilution. ITC data analysis was performed using Origin 7 calorimetry software from the same supplier. For most measurements a binding model of one binding site was assumed. According to the applied mathematical model it is possible to calculate the binding constant (KA), the observed binding enthalpy (ΔH^obs) as well as the stoichiometry (N) of the formed complex. Preceding analysis the raw data was corrected for the heats of dilution by extrapolating from the saturation value from the end of titration. In order to allow for direct comparison between the respective experimental series and protein preparations the protein concentration was corrected by referencing titrations to a well behaved standard inhibitor. The apparent stoichiometry values defined the fraction of binding competent protein and compensated for relative errors in protein concentration measurements. This corrected protein concentration was used to set up ITC experiment series with test compounds. Any deviations from ideal 1:1 stoichiometry observed here were attributed to errors in compound concentration. This nominal compound concentration was corrected as well to achieve 1:1 stoichiometry in the fit.

| Structure (SMILES) | IC50 (PDHK2) | Kd (human PDHK2 (12-407)) | IC50 [1] |
| --- | --- | --- | --- |
| C[C@H]1CN(C(=O)[C@@](C)(O)C(F)(F)F)CC[C@H]1N(C)C(=O)c1ncc(F)cc1F [Compound A42, 3,5-Difluoro-N-methyl-N-[(3S,4R)-3-methyl-1-[(2R)-3,3,3-trifluoro-2-hydroxy-2-methylpropanoyl]piperidin-4-yl]pyridine-2-carboxamide] | 2.4 µM | – | – |
| C[C@H]1CN(C(=O)[C@@](C)(O)C(F)(F)F)CC[C@H]1N(C)C(=O)c1ccc(C#N)cc1 [Compound A45, 4-Cyano-N-methyl-N-[(3S,4R)-3-methyl-1-[(2R)-3,3,3-trifluoro-2-hydroxy-2-methylpropanoyl]piperidin-4-yl]benzamide] | 27 µM | – | – |
| C[C@H]1CN(C(=O)[C@@](C)(O)C(F)(F)F)CC[C@H]1N(C)C(=O)c1ccc(F)cn1 [Compound A54, 5-Fluoro-N-methyl-N-[(3S,4R)-3-methyl-1-[(2R)-3,3,3-trifluoro-2-hydroxy-2-methylpropanoyl]piperidin-4-yl]pyridine-2-carboxamide] | 13 µM | – | – |
| Cc1ccc(N(C)C(=O)C2CCN(C(=O)[C@@](C)(O)C(F)(F)F)CC2C)cc1 (stereo partly drawn) [Compound A6, N,3-Dimethyl-N-(4-methylphenyl)-1-[(2R)-3,3,3-trifluoro-2-hydroxy-2-methylpropanoyl]piperidine-4-carboxamide] | 0.24 µM | – | 0.2 µM |
| CN(C(=O)C1CCN(C(=O)[C@@](C)(O)C(F)(F)F)CC1)c1ccc(C#N)cc1 [Compound A4, 1-((R)-3,3,3-Trifluoro-2-hydroxy-2-methyl-propionyl)-piperidine-4-carboxylic acid (4-cyano-phenyl)-methyl-amide] | 1.5 µM | 0.21 µM | – |
| Cc1ccc(N(C)C(=O)[C@@H]2CCN(C(=O)[C@@](C)(O)C(F)(F)F)C[C@@H]2C)cc1 [Compound A8, (3R,4R)—N,3-Dimethyl-N-(4-methylphenyl)-1-[(2R)-3,3,3-trifluoro-2-hydroxy-2-methylpropanoyl]piperidine-4-carboxamide] | 5.1 µM | – | – |
| CC1CN(C(=O)[C@@](C)(O)C(F)(F)F)CCC1C(=O)N(C)c1ccc(C(F)(F)F)cc1Cl (stereo partly drawn) [Compound A15, N-[2-chloro-4-(trifluoromethyl)phenyl]-N,3-dimethyl-1-[(2R)-3,3,3-trifluoro-2-hydroxy-2-methylpropanoyl]piperidine-4-carboxamide] | 1.7 µM | – | – |
| Cc1ccc(N(C)C(=O)[C@@H]2CCN(C(=O)[C@@](C)(O)C(F)(F)F)C[C@@H]2C)c(F)c1 [Compound A14, (3R,4R)—N-(2-fluoro-4-methylphenyl)-N,3-dimethyl-1-[(2R)-3,3,3-trifluoro-2-hydroxy-2-methylpropanoyl]piperidine-4-carboxamide] | 0.77 µM | 5 µM | – |
| C[C@H]1CN(C(=O)[C@@](C)(O)C(F)(F)F)CC[C@H]1N(C)C(=O)c1ccc(F)cc1F [Compound A39, 2,4-Difluoro-N-methyl-N-[(3S,4R)-3-methyl-1-[(2R)-3,3,3-trifluoro-2-hydroxy-2-methylpropanoyl]piperidin-4-yl]benzamide] | 4.9 µM | – | – |
| C[C@H]1CN(C(=O)[C@@](C)(O)C(F)(F)F)CC[C@H]1N(C)C(=O)c1ccc(Cl)cc1 [Compound A22, 4-Chloro-N-methyl-N-[(3S,4R)-3-methyl-1-[(2R)-3,3,3-trifluoro-2-hydroxy-2-methylpropanoyl]piperidin-4-yl]benzamide] | 5.9 µM | – | – |

The remaining compounds from weak to strong by IC50 (PDHK2), led by results:

| IC50 (PDHK2) | Kd (human PDHK2 (12-407)) | Structure (SMILES) | IC50 [1] |
| --- | --- | --- | --- |
| 19 µM | – | C[C@H]1CN(C(=O)[C@@](C)(O)C(F)(F)F)CC[C@H]1N(C)C(=O)c1cnn(C)c1 [Compound A57, N,1-Dimethyl-N-[(3S,4R)-3-methyl-1-[(2R)-3,3,3-trifluoro-2-hydroxy-2-methylpropanoyl]piperidin-4-yl]-1H-pyrazole-4-carboxamide] | – |
| 7.9 µM | – | C[C@H]1CN(C(=O)[C@@](C)(O)C(F)(F)F)CC[C@H]1N(C)C(=O)c1ccc(F)cc1 [Compound A30, 4-Fluoro-N-methyl-N-[(3S,4R)-3-methyl-1-[(2R)-3,3,3-trifluoro-2-hydroxy-2-methylpropanoyl]piperidin-4-yl]benzamide] | – |
| 3.9 µM | – | C[C@H]1CN(C(=O)[C@@](C)(O)C(F)(F)F)CC[C@H]1N(C)C(=O)c1ccc(Cl)cc1F [Compound A60, 4-Chloro-2-fluoro-N-methyl-N-[(3S,4R)-3-methyl-1-[(2R)-3,3,3-trifluoro-2-hydroxy-2-methylpropanoyl]piperidin-4-yl]benzamide] | – |
| 3.8 µM | – | C[C@H]1CN(C(=O)[C@@](C)(O)C(F)(F)F)CC[C@H]1C(=O)N(C)c1ccc(Cl)cc1 [Compound A11, (3R,4R)—N-(4-chlorophenyl)-N,3-dimethyl-1-[(2R)-3,3,3-trifluoro-2-hydroxy-2-methylpropanoyl]piperidine-4-carboxamide] | – |
| 3.6 µM | – | C[C@H]1CN(C(=O)[C@@](C)(O)C(F)(F)F)CC[C@H]1N(C)C(=O)c1ccc(F)cc1Cl [Compound A51, 2-Chloro-4-fluoro-N-methyl-N-[(3S,4R)-3-methyl-1-[(2R)-3,3,3-trifluoro-2-hydroxy-2-methylpropanoyl]piperidin-4-yl]benzamide] | – |
| 3.4 µM | – | C[C@H]1CN(C(=O)[C@@](C)(O)C(F)(F)F)CC[C@H]1N(C)C(=O)c1ccccc1 [Compound A33, N-Methyl-N-[(3S,4R)-3-methyl-1-[(2R)-3,3,3-trifluoro-2-hydroxy-2-methylpropanoyl]piperidin-4-yl]benzamide] | – |
| 2.9 µM | – | C[C@H]1CN(C(=O)[C@@](C)(O)C(F)(F)F)CC[C@H]1N(C)C(=O)c1ccc(C(F)(F)F)cc1 [Compound A63, N-Methyl-N-[(3S,4R)-3-methyl-1-[(2R)-3,3,3-trifluoro-2-hydroxy-2-methylpropanoyl]piperidin-4-yl]-4-(trifluoromethyl)benzamide] | – |
| 2.7 µM | – | Cc1ccc(C(=O)N(C)[C@@H]2CCN(C(=O)[C@@](C)(O)C(F)(F)F)C[C@@H]2C)cc1 [Compound A25, N,4-Dimethyl-N-[(3S,4R)-3-methyl-1-[(2R)-3,3,3-trifluoro-2-hydroxy-2-methylpropanoyl]piperidin-4-yl]benzamide] | – |
| 2.4 µM | – | C[C@H]1CN(C(=O)[C@@](C)(O)C(F)(F)F)CC[C@H]1N(C)C(=O)c1ccc(C(F)(F)F)cc1F [Compound A48, 2-Fluoro-N-methyl-N-[(3S,4R)-3-methyl-1-[(2R)-3,3,3-trifluoro-2-hydroxy-2-methylpropanoyl]piperidin-4-yl]-4-(trifluoromethyl)benzamide] | – |
| 1.3 µM | – | COc1ccc(C(=O)N(C)[C@@H]2CCN(C(=O)[C@@](C)(O)C(F)(F)F)C[C@@H]2C)cc1 [Compound A36, 4-Methoxy-N-methyl-N-[(3S,4R)-3-methyl-1-[(2R)-3,3,3-trifluoro-2-hydroxy-2-methylpropanoyl]piperidin-4-yl]benzamide] | – |
